Source: patent US20060252827A1, “Therapeutic use of acyglycerols and the nitrogen-and sulphur-containing analogues thereof” (priority 2003, published 2006)

Assays:
[1] = test system: LDL; assay: LDL oxidation by copper, conjugated diene formation (OD 234 nm); assay type: biochemical; conditions: for increase in the lag phase: relative to copper alone; for increase in the lag phase / lag phase for conjugated diene formation: FIG. 2a; for decrease in the maximum amount of conjugated dienes formed: copper alone 496 nmol per mg of LDL, FIG. 2c; for rate of conjugated diene formation (LDL oxidation rate): copper alone 3, FIG. 2b; for lag phase for conjugated diene formation: copper alone 104 minutes
Protocol: LDL were prepared as described in Lebeau et al. (Lebeau, Furman et al. 2000). The solutions of the test compounds were prepared at 10^−2 M in ethanol and diluted in PBS so that the final concentration ranged from 0.1 to 100 μM with a total ethanol concentration of 1% (V/V).
Before oxidation, EDTA was removed from the LDL preparation by dialysis. The oxidation reaction was then carried out at 30° C. by adding 100 μl of 16.6 μM CuSO4 or 2 mM MPH to 800 μl of LDL (125 μg protein/ml) and 100 μl of a test compound solution. The formation of dienes, the species to be followed, was measured by the optical density at 234 nm in the samples treated with the compounds in the presence or absence of copper (or MPH). Optical density at 234 nm was measured every 10 minutes for 8 hours on a thermostated spectrophotometer (Kontron Uvikon 930). The analyses were carried out in triplicate. A compound was considered to have antioxidant activity when it shifted the lag phase latency relative to the control sample. […] FIG. 2 presents an example of the results obtained with the inventive compounds.

[2] = biological target: T1, hPPARα (Gal4/PPARα chimera) (Homo sapiens, UniProt Q07869); assay: Gal4/PPARα transactivation system in HepG2 cells (luciferase); assay type: cell-based; conditions: HepG2, 24 h, PC liposomes, FIG. 3
T1 construct: expressed in transfected cells; host or cells: HepG2
T1 sequence (Q07869 239-466 limits assumed): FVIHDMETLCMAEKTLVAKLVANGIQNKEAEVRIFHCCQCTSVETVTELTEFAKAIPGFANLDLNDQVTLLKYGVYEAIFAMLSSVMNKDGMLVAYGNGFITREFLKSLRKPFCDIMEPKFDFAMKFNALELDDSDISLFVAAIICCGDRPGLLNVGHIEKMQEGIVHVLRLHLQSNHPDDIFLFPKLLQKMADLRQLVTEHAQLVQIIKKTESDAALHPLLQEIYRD
Protocol: PPAR activation was tested in vitro in RK13 fibroblast cell lines or in a […] line HepG2 by measuring the transcriptional activity of chimeras composed of the DNA binding domain of the yeast gal4 transcription factor and the ligand binding domain of the different PPARs. The example below is given for HepG2 cells.
HepG2 cells were from ECACC (Porton Down, UK) and were grown in DMEM medium supplemented with 10% (V/V) fetal calf serum, 100 U/ml penicillin (Gibco, Paisley, UK) and 2 mM L-glutamine (Gibco, Paisley, UK). The culture medium was changed every two days. Cells were kept at 37° C. in a humidified 95% air/5% CO2 atmosphere.
The plasmids pG5TkpGL3, pRL-CMV, pGal4-hPPARα, pGal4-hPPARγ and pGal4-f have been described by Raspe et al. (Raspe, Madsen et al. 1999). The pGal4-mPPARα and pGal4-hPPARβ constructs were obtained by cloning PCR-amplified DNA fragments corresponding to the DEF domains of the mouse PPARα and human PPARβ nuclear receptors, respectively, into the pGal4-f vector.
HepG2 cells were seeded in 24-well culture dishes at 5×10^4 cells/well and transfected for 2 hours with the reporter plasmid pG5TkpGL3 (50 ng/well), the expression vectors pGal4-f, pGal4-mPPARα, pGal4-hPPARα, pGal4-hPPARγ, pGal4-hPPAβ (100 ng/well) and the transfection efficiency control vector pRL-CMV (1 ng/well) according to the previously described protocol (Raspe, Madsen et al. 1999), then incubated for 36 hours with the test compounds. At the end of the experiment, the cells were lysed (Gibco, Paisley, UK) and luciferase activity was determined with a Dual-Luciferase™ Reporter Assay System kit (Promega, Madison, Wis., USA) according to the supplier's instructions. The protein content of the cell extracts was then measured with the Bio-Rad Protein Assay (Bio-Rad, Munich, Germany) as directed by the supplier.
FIG. 3: HepG2 cells transfected with Gal4/PPARα plasmids were incubated with different concentrations of inventive compounds (5, 15, 50 and 100 μM) for 24 h and with different concentrations of the vehicle (PC). The results are expressed as the induction factor (luminescent signal relative to untreated cells) after the different treatments. […] The induction factors for compound Ex 4p were 35 at 100 μM, 44 at 50 μM, 36 at 15 μM and 24 at 5 μM. In contrast, when the cells were incubated with the vehicle (PC liposome), no significant induction was observed.

[3] = test system: ischemia induced by occlusion of the middle cerebral artery; assay: Cerebral ischemia-reperfusion model, curative or acute phase treatment, brain infarct volume; assay type: in vivo, Wistar rats
Protocol: (§1) Animals such as those described previously were used for this experiment. Animals were anesthetized by intraperitoneal injection of 300 mg/kg chloral hydrate. A rectal probe was inserted and body temperature was maintained at 37° C.±0.5° C. Blood pressure was monitored throughout the experiment. Under a surgical microscope, the right carotid artery was exposed by a median incision in the neck. The pterygopalatine artery was ligated at its origin and an arteriotomy was fashioned in the external carotid artery so as to insert a nylon monofilament, which was gently advanced to the common carotid artery and then into the internal carotid artery so as to occlude the origin of the middle cerebral artery. The filament was withdrawn one hour later to allow reperfusion. Animals first subjected to ischemia-reperfusion were treated with the inventive compounds by the oral route (such as previously described in CMC+Tween vehicle) one or more times after reperfusion (600 mg/kg/day or 300 mg/kg/day bid). 24, 48 or 72 hours after reperfusion, animals previously treated or not with the compounds were euthanized by pentobarbital overdose. Brains were rapidly frozen and sliced. Sections were stained with cresyl violet. Unstained zones of the brain sections were considered to be damaged by the infarct. Areas (of the infarct and the two hemispheres) were measured, the volume of the infarct and the two hemispheres was calculated and the corrected infarct volume was determined by the following formula: (corrected infarct volume=infarct volume−(volume of right hemisphere−volume of left hemisphere)) to compensate for cerebral oedema.

[4] = test system: ischemia induced by occlusion of the middle cerebral artery; assay: Cerebral ischemia-reperfusion model, prophylactic treatment, brain infarct volume; assay type: in vivo, Wistar rats
Protocol: as §1, with “Wistar rats weighing 200 to 350 g were used” for “Animals such as those described previously were used”, “this experiment. Animals were treated by gavage with the inventive compounds (600 mg/kg/day) in suspension in the vehicle (0.5% carboxycellulose (CMC) and 0.1% Tween) or with the vehicle alone, for 14 days before ischemia induction by occlusion of the middle cerebral artery. Animals were” for “this experiment. Animals were”, “allow reperfusion. Twenty-four hours after” for “allow reperfusion. Animals first subjected to ischemia-reperfusion were treated with the inventive compounds by the oral route (such as previously described in CMC+Tween vehicle) one or more times after reperfusion (600 mg/kg/day or 300 mg/kg/day bid). 24, 48 or 72 hours after”, “with the inventive compounds were” for “with the compounds were”, “hemispheres) were measured and the volume” for “hemispheres) were measured, the volume”

[5] = prophylactic treatment, FIG. 4b

Row | Compound | effect on the LDL oxidation rate (in words) ([1]; FIG. 2b) | increase in the lag phase [1] [%] | induction factor (luminescent signal relative to untreated cells) ([2]; 5 μM) [fold] | induction factor (luminescent signal relative to untreated cells) ([2]; 15 μM) [fold] | induction factor (luminescent signal relative to untreated cells) ([2]; 50 μM) [fold] | induction factor (luminescent signal relative to untreated cells) ([2]; 100 μM) [fold] | decrease in the maximum amount of conjugated dienes formed ([1]; compound at 10^-4 M) [%] | rate of conjugated diene formation (LDL oxidation rate) ([1]; compound at 10^-4 M) | also measured
1 | CCCCCCCCCCCCCCSCC(=O)OC(COC(=O)CCCCCCC)COC(=O)CCCCCCC [Ex 4q, 1,3-dioctanoyl-2-tetradecylthioacetylglycerol] | did not significantly alter | 54 | – | – | – | – | – | – | –
2 | CCCCCCCCCCCCCCSCC(=O)OCC(O)CO (stereo not drawn) [Ex 2a, 1-tetradecylthioacetylglycerol] | did not significantly alter | 67 | 17 | 31 | 41 | 62 | – | – | –
3 | 1,3-dilinoleyl-2-tetradecylthioacetylglycerol [Ex 4h] | – | 43 | – | – | – | – | 24 | 2.5 nmol/min/mg of LDL | –
4 | CCCCCCCCCCCCCCCC(=O)OC(COC(=O)CSCCCCCCCCCCCCCC)COC(=O)CSCCCCCCCCCCCCCC [Ex 4o, 1,3-ditetradecylthioacetyl-2-palmitoylglycerol] | did not significantly alter | 37 | – | – | – | – | – | – | –
5 | CCCCCCCCCCCCCCSCC(=O)OCC(COC(=O)CSCCCCCCCCCCCCCC)OC(=O)CSCCCCCCCCCCCCCC [Ex 4a, 1,2,3-tritetradecylthioacetylglycerol] | – | 160 | 9 | 18 | 30 | 41 | 60 | 1 nmol/min/mg of LDL | lesions smaller than control animals ([3]; 600 mg/kg/day for 24 hours after ischemia, FIG. 4c): 27%; infarct volume ([3]; 600 mg/kg/day for 24 hours after ischemia, controls 180 mm^3, FIG. 4c): 132 mm^3; lesions smaller than control animals ([3]; 600 mg/kg/day for 72 hours after ischemia, FIG. 4e): 40%; corrected infarct volume ([3]; 600 mg/kg/day for 72 hours after ischemia, controls 180 mm^3, FIG. 4e): 110 mm^3; decrease in lesions, cortical infarct (uncorrected infarct volume) ([3]; acute phase 24 h, FIG. 4d): 25%; effect on striatal infarct (uncorrected infarct volume), in words ([3]; acute phase 24 h, FIG. 4d): no significant decrease in lesions; decrease in lesions, cortical infarct (uncorrected infarct volume) ([3]; acute phase 72 h, FIG. 4f): 32%; decrease in lesions, striatal infarct (uncorrected infarct volume) ([3]; acute phase 72 h, FIG. 4f): 23%; decrease in lesion size relative to control animals ([4]; oral, 300 mg/kg/day bid, 14 days before ischemia, FIG. 4a): 22%; corrected total infarct volume (lesion size) ([4]; oral, 300 mg/kg/day bid, 14 days before ischemia, controls 186 mm^3, FIG. 4a): 145 mm^3; decrease in lesions, cortical infarct (uncorrected infarct volume) [4, 5]: 22%; effect on striatal infarct (uncorrected infarct volume), in words [4, 5]: no significant decrease in lesions; decrease in the oxidation rate ([1]; compound at 10^-4 M, FIG. 2b): 66%; lag phase for conjugated diene formation ([1]; compound at 10^-4 M): 270 min
6 | CCCCCCCCCCCCCCSCC(=O)OC(COC(C)=O)COC(C)=O [Ex 4p, 1,3-diacetyl-2-tetradecylthioacetylglycerol] | – | – | 24 | 36 | 44 | 35 | – | – | –
7 | CCCCCCCCCCCCCCCC(=O)OCC(COC(=O)CCCCCCCCCCCCCCC)OC(=O)CSCCCCCCCCCCCCCC [Ex 4g, 1,3-dipalmitoyl-2-tetradecylthioacetylglycerol] | – | 170 | – | – | – | – | 31 | 1.8 nmol/min/mg of LDL | lag phase for conjugated diene formation ([1]; compound at 10^-4 M): 282 min
